Patent publication EP0391644B1, “Aryl-substituted rhodanine derivatives” (ELI LILLY AND COMPANY, priority 1989, dated 1990)

The compounds below were run on adjuvant-induced arthritis (assay: Developing Adjuvant-Induced Arthritis Test in Rats). Conditions: Rattus norvegicus, po, 720 h; 25 mg/kg P.O. x 29; AUC of uninjected paw volumes, Days 16 through 30; read-out: % Inhibition of Uninjected Paw Volume Inflammation.
Format: in vivo, male Lewis-Wistar rats
Work on `CCCNN1CSC(=Cc2cc(C(C)(C)C)c(O)c(C(C)(C)C)c2)C1=O` [Example 51, 5-{[3,5-bis(1,1-dimethylethyl)-4-hydroxyphenyl]methylene}-3-(propylamino)-4-thiazolidinone] yielded an inhibition in vivo at 25 mg/kg of 39%.

Same assay, conditions: Rattus norvegicus, po, 720 h; 50 mg/kg P.O. x 29; AUC of uninjected paw volumes, Days 16 through 30; read-out: % Inhibition of Uninjected Paw Volume Inflammation
`C#CCN(C)CCN1CSC(=Cc2cc(C(C)(C)C)c(O)c(C(C)(C)C)c2)C1=O` [Example 31, 5-{[3,5-bis(1,1-dimethylethyl)-4-hydroxyphenyl]methylene}-3-[2-(methyl-2-propynylamino)ethyl]-4-thiazolidinone] gave an inhibition in vivo at 50 mg/kg of 28.9%. In the case of `CC(C)(C)c1cc(C=C2SCN(N)C2=O)cc(C(C)(C)C)c1O` [Example 50, 3-amino-5-{[3,5-bis(1,1-dimethylethyl)-4-hydroxyphenyl]methylene}-4-thiazolidinone], the inhibition in vivo at 50 mg/kg is reported as 62%. Compound `CC(=O)OCCCc1cc(C=C2SCN(C)C2=O)cc(CCCOC(C)=O)c1O` [Example 63, 5-{[3,5-bis[3-(acetyloxy)propyl]-4-hydroxyphenyl]methylene}-3-methyl-4-thiazolidinone] has an inhibition in vivo at 50 mg/kg of 9.8%. With `CCCc1cc(C=C2SCNC2=O)cc(CCC)c1O` [Example 57, 5-[(4-hydroxy-3,5-dipropylphenyl)methylene]-4-thiazolidinone] the inhibition in vivo at 50 mg/kg was 44.1%. With `CN1CSC(=Cc2ccc(O)c(C(C)(C)C)c2)C1=O` [Example 66, 5-{[3-(1,1-dimethylethyl)-4-hydroxyphenyl]-methylene}-3-methyl-4-thiazolidinone] the inhibition in vivo at 50 mg/kg was 26.1%. `CN(C)CCN1CSC(=Cc2cc(C(C)(C)C)c(O)c(C(C)(C)C)c2)C1=O` [Example 29, 5-{[3,5-bis(1,1-dimethylethyl)-4-hydroxyphenyl]methylene}-3-[2-(dimethylamino)ethyl]-4-thiazolidinone] gave an inhibition in vivo at 50 mg/kg of 49%. Work on `CN(C)CCNCCN1CSC(=Cc2cc(C(C)(C)C)c(O)c(C(C)(C)C)c2)C1=O` [Example 32, 5-{[3,5-bis(1,1-dimethylethyl)-4-hydroxyphenyl]methylene}-3-{2-[[2-(dimethylamino)ethyl]amino]-ethyl}-4-thiazolidinone] yielded an inhibition in vivo at 50 mg/kg of 48.6%. With `CCCCN(C)N1CSC(=Cc2cc(C(C)(C)C)c(O)c(C(C)(C)C)c2)C1=O` [Example 41, 5-{[3,5-bis(1,1-dimethylethyl)-4-hydroxyphenyl]methylene}-3-(butylmethylamino)-4-thiazolidinone] the inhibition in vivo at 50 mg/kg was 27%. Compound `CC(=C1SCN(N(C)C)C1=O)c1cc(C(C)(C)C)c(O)c(C(C)(C)C)c1` [Example 46, 5-{1-[3,5-bis(1,1-dimethylethyl)-4-hydroxyphenyl]methylmethylene}-3-(dimethylamino)-4-thiazolidinone] has an inhibition in vivo at 50 mg/kg of 9%. In the case of `CN1CCN(N2CSC(=Cc3cc(C(C)(C)C)c(O)c(C(C)(C)C)c3)C2=O)CC1` [Example 43, 5-{[3,5-bis(1,1-dimethylethyl)-4-hydroxyphenyl]methylene}-3-(4-methyl-1-piperazinyl)-4-thiazolidinone], the inhibition in vivo at 50 mg/kg is reported as 36%. For `CC(=C1SCN(C)C1=O)c1cc(C(C)(C)C)c(O)c(C(C)(C)C)c1` [Example 25, 5-{[3,5-bis(1,1-dimethylethyl)-4-hydroxyphenyl]methylmethylene}-3-methyl-4-thiazolidinone], the inhibition in vivo at 50 mg/kg was 8.5%. Work on `CC(C)(C)c1cc(C=C2SCN(C3CC3)C2=O)cc(C(C)(C)C)c1O` [Example 20, 5-{[3,5-bis(1,1-dimethylethyl)-4-hydroxyphenyl]methylene}-3-cyclopropyl-4-thiazolidinone] yielded an inhibition in vivo at 50 mg/kg of 36%. For `CNCCCN1CSC(=Cc2cc(C(C)(C)C)c(O)c(C(C)(C)C)c2)C1=O` [Example 34, 5-{[3,5-bis(1,1-dimethylethyl)-4-hydroxyphenyl]methylene}-3-[3-(methylamino)propyl]-4-thiazolidinone], the inhibition in vivo at 50 mg/kg was 1.6%. For `CCCc1cc(C=C2SCN(C)C2=O)cc(CCC)c1O` [Example 56, 5-[(4-hydroxy-3,5-dipropylphenyl)methylene]-3-methyl-4-thiazolidinone], the inhibition in vivo at 50 mg/kg was 38.2%.
